Measurements published in paper PMC12528650, “The CsMYB36-CsSWEET17 module mediates the calcium-induced sucrose accumulation in citrus” (Horticulture Research, 2025).

Biological target: T1, CsSWEET17 (Citrus sinensis, UniProt A0ACB8I933)
T1 construct: gene KPL71_027705; full-length CDS (705 bp, about 235 residues) in pDR196, expressed in Saccharomyces cerevisiae CSY4000 (W303 for esculin); seven TMs
Assay: […]-sucrose uptake in CSY4000 yeast, nonlinear Michaelis-Menten fit
Format: cell-based
Conditions: pH 5.5; 30 °C; proton-coupled transport; labelled compound

T1 sequence (A0ACB8I933 entry or part of it): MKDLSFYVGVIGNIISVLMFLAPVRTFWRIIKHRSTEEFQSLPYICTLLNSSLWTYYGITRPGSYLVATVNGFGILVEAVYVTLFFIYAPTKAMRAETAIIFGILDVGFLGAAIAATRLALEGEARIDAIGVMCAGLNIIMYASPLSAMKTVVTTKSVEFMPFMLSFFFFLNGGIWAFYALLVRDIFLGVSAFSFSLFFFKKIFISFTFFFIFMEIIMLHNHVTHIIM

Km: 291 µM
SMILES: OC[C@H]1O[C@@](CO)(O[C@H]2O[C@H](CO)[C@@H](O)[C@H](O)[C@H]2O)[C@@H](O)[C@@H]1O [sucrose]
